Experimental data reported in patent publication US6867284B1, “Peptide inhibitors of hepatitis C virus NS3 protease” (Istituto di Ricerche di Biologia Molecolare P. Angeletti …, priority 1998, dated 2005).
Read-outs that look alike come from different tables or passages of the source.

Target: T1, HCV NS3 protease (Hepatitis C virus genotype 1b, UniProt P26663)
T1 construct: an NS3/4A complex comprising the NS3 protease domain
Test: Inhibition of NS3 protease (HPLC cleavage assay, NS3/4A complex with Pep4AK, substrate peptide 4AB)
Type: biochemical
Experimental: Buffer solutions containing 80 μM Pep4AK were preincubated for 10 minutes with 10-200 nM protease and reactions were started by addition of substrate. Six duplicate data points at different substrate concentrations were used to calculate kinetic parameters. Incubation times were chosen in order to obtain <7% substrate conversion and reactions were stopped by addition of 40 μl 1% TFA. Cleavage of peptide substrates was determined by HPLC using a Merck-Hitachi chromatograph equipped with an autosampler. 80 μl samples were injected on a Lichrospher C18 reversed phase cartridge column (4×74 mm, 5 μm, Merck) and fragments were separated using a 10-40% acetonitrile gradient a 5%/min using a flow rate of 2.5 ml/min. Peak detection was accomplished by monitoring both the absorbance at 220 nm and tyrosine fluorescence (λex=260 nm, λem=305 nm). Cleavage products were quantitated by integration of chromatograms with respect to appropriate standards. Kinetic parameters were calculated from nonlinear least-squares fit of initial rates as a function of substrate concentration with the help of a Kaleidagraph software, assuming Michaelis-Menten kinetics.
Ki values of peptide inhibitors were calculated from substrate titration experiments performed in the presence of increasing amounts of inhibitor. Experimental data sets were simultaneously fitted to eq.1 using a multicurve fit macro with the help of a Sigmaplot software: V=(VmaxS)/(Km(1+[…])+S); (eq.1)
Alternatively, Ki values were derived from IC50 values, calculated using a four-parameter logistic function, according to eq.2: IC50−(1+S/Km)Ki (eq.2)

[1] = Table 3 capped dipeptide keto acids, read-out: IC50
[2] = Table 4 indoline keto acids and related, read-out: IC50
[3] = Table 1 hexapeptides, cells printed in nM, read-out: IC50

T1 sequence (P26663 1027-1208, other chains not shown): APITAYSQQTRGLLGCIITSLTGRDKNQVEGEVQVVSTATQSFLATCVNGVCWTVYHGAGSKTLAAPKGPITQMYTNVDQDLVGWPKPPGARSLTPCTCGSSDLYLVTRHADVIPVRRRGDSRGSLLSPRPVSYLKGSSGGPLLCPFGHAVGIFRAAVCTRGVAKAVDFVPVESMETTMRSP

SMILES | IC50 [1] | IC50 [2] | further results
CCCC(CCC)C(=O)N[C@@H](CC(C)C)C(=O)NC(CC(F)F)C(=O)C(=O)O (mixture of isomers) [Compound 7c] | 78 µM | – | –
CC(C)C[C@H](NC(=O)CCCC(=O)O)C(=O)NC(CC(F)F)C(=O)C(=O)O (mixture of isomers) [Compound 7d] | 6 µM | – | –
CC(C)C[C@H](NC(=O)CC(C)(C)CC(=O)O)C(=O)NC(CC(F)F)C(=O)C(=O)O (mixture of isomers) [Compound 7e] | 4 µM | – | –
CC(C)C[C@H](NC(=O)COCC(=O)O)C(=O)NC(CC(F)F)C(=O)C(=O)O (mixture of isomers) [Compound 7h] | 32 µM | – | –
CC(C)C[C@H](NC(=O)CC(CC(=O)O)c1ccccc1)C(=O)NC(CC(F)F)C(=O)C(=O)O (mixture of isomers) [Compound 7j] | – | – | IC50: 26 µM
CC(C)C[C@H](NC(=O)CC(CC(=O)O)c1ccc(Cl)cc1)C(=O)NC(CC(F)F)C(=O)C(=O)O (mixture of isomers) [Compound 7k] | 35 µM | – | –
COC(=O)CC1(CC(=O)N[C@@H](CC(C)C)C(=O)NC(CC(F)F)C(=O)C(=O)O)CCCC1 (mixture of isomers) [Compound 7m] | 85 µM | – | –
CC(C)C[C@H](NC(=O)CC1(CC(=O)NS(=O)(=O)c2ccccc2)CCCC1)C(=O)NC(CC(F)F)C(=O)C(=O)O (mixture of isomers) [Compound 7n] | 7 µM | – | –
CC(C)C[C@H](NC(=O)C1(CCC(=O)O)CCCC1)C(=O)NC(CC(F)F)C(=O)C(=O)O (mixture of isomers) [Compound 7o] | 22 µM | – | –
CC(C)C[C@H](NC(=O)CC1(CC(=O)O)CCCCC1)C(=O)NC(CC(F)F)C(=O)C(=O)O (mixture of isomers) [Compound 7q] | 2 µM | – | –
CC(C)C[C@H](NC(=O)Cc1cccc(CC(=O)O)c1)C(=O)NC(CC(F)F)C(=O)C(=O)O (mixture of isomers) [Compound 8c] | 7 µM | – | –
CC(C)C[C@H](NC(=O)Cc1ccc(CC(=O)O)cc1)C(=O)NC(CC(F)F)C(=O)C(=O)O (mixture of isomers) [Compound 8d] | 7 µM | – | –
CC(C)C[C@H](NC(=O)C(Sc1ccccc1)c1ccccc1)C(=O)NC(CC(F)F)C(=O)C(=O)O (mixture of isomers) [Compound 8i] | 28 µM | – | –
CC(C)C[C@H](NC(=O)C(Cc1ccccc1)c1ccccc1)C(=O)NC(CC(F)F)C(=O)C(=O)O (mixture of isomers) [Compound 8j] | 100 µM | – | –
COc1ccc(C(Oc2ccccc2)C(=O)N[C@@H](CC(C)C)C(=O)NC(CC(F)F)C(=O)C(=O)O)cc1 (mixture of isomers) [Compound 8k] | 72 µM | – | –
CC(C)C[C@H](NC(=O)[C@H](O)C1CCCCC1)C(=O)NC(CC(F)F)C(=O)C(=O)O (mixture of isomers) [Compound 8l] | 14 µM | – | –
CC(C)C[C@H](NC(=O)C1OC(=O)CC12CCCC2)C(=O)NC(CC(F)F)C(=O)C(=O)O (mixture of isomers) [Compound 8m] | 60 µM | – | –
CC(C)C[C@H](NC(=O)[C@H](O)c1ccccc1)C(=O)NC(CC(F)F)C(=O)C(=O)O (mixture of isomers) [Compound 8n] | 6 µM | – | –
CC(C)C[C@H](NC(=O)[C@H](O)c1ccc(C(F)(F)F)cc1)C(=O)NC(CC(F)F)C(=O)C(=O)O (mixture of isomers) [Compound 8o] | 56 µM | – | –
COc1ccc([C@@H](O)C(=O)N[C@@H](CC(C)C)C(=O)NC(CC(F)F)C(=O)C(=O)O)cc1 (mixture of isomers) [Compound 8p] | 25 µM | – | –
CC(C)C[C@H](NC(=O)[C@H](O)c1ccc(Cl)cc1)C(=O)NC(CC(F)F)C(=O)C(=O)O (mixture of isomers) [Compound 8q] | 25 µM | – | –
CC(C)C[C@H](NC(=O)[C@H](O)c1ccccc1Cl)C(=O)NC(CC(F)F)C(=O)C(=O)O (mixture of isomers) [Compound 8r] | 82 µM | – | –
CCCCC1(C(=O)NC(CC(C)C)C(=O)NC(CC(F)F)C(=O)C(=O)O)Cc2ccccc2N1 (mixture of isomers) [Compound 9b] | – | 87 µM | –
CC(C)C[C@H](NC(=O)C1(C(C)C)Cc2ccccc2N1)C(=O)NC(CC(F)F)C(=O)C(=O)O (mixture of isomers) [Compound 9c] | – | 92 µM | –

SMILES | IC50 [1] | IC50 [2] | further results
CC(C)C[C@H](NC(=O)C1(CC(C)C)Cc2ccccc2N1)C(=O)NC(CC(F)F)C(=O)C(=O)O (mixture of isomers) [Compound 9d] | – | 16 µM | –
CC(C)=CCC1(C(=O)NC(CC(C)C)C(=O)NC(CC(F)F)C(=O)C(=O)O)Cc2ccccc2N1 (mixture of isomers) [Compound 9e] | – | 69 µM | –
CC(C)CCC1(C(=O)N[C@@H](CC(C)C)C(=O)NC(CC(F)F)C(=O)C(=O)O)Cc2ccccc2N1 (mixture of isomers) [Compound 9f] | – | 120 µM | –
CCC(C)CC1(C(=O)N[C@@H](CC(C)C)C(=O)NC(CC(F)F)C(=O)C(=O)O)Cc2ccccc2N1 (mixture of isomers) [Compound 9h] | – | 81 µM | –
CC(C)C[C@H](NC(=O)C1(CC2CCC2)Cc2ccccc2N1)C(=O)NC(CC(F)F)C(=O)C(=O)O (mixture of isomers) [Compound 9j] | – | 34 µM | –
CC(C)C[C@H](NC(=O)C1(C2CCCCC2)Cc2ccccc2N1)C(=O)NC(CC(F)F)C(=O)C(=O)O (mixture of isomers) [Compound 9k] | – | 69 µM | –
CC(C)C[C@H](NC(=O)C1(CC2CCCCC2)Cc2ccccc2N1)C(=O)NC(CC(F)F)C(=O)C(=O)O (mixture of isomers) [Compound 9l] | – | 31 µM | –
COCCOCC1(C(=O)N[C@@H](CC(C)C)C(=O)NC(CC(F)F)C(=O)C(=O)O)Cc2ccccc2N1 (mixture of isomers) [Compound 9m] | – | 57 µM | –
CC(C)C[C@H](NC(=O)C1(CC(=O)O)Cc2ccccc2N1)C(=O)NC(CC(F)F)C(=O)C(=O)O (mixture of isomers) [Compound 9n] | – | 81 µM | –
CC(C)C[C@H](NC(=O)C1(Cc2ccccc2)Cc2ccccc2N1)C(=O)NC(CC(F)F)C(=O)C(=O)O (mixture of isomers) [Compound 9o] | – | 45 µM | –
CC(C)C[C@H](NC(=O)C1(C(C)c2ccccc2)Cc2ccccc2N1)C(=O)NC(CC(F)F)C(=O)C(=O)O (mixture of isomers) [Compound 9p] | – | 88 µM | –
CC(C)C[C@H](NC(=O)C1(Cc2cccc(Br)c2)Cc2ccccc2N1)C(=O)NC(CC(F)F)C(=O)C(=O)O (mixture of isomers) [Compound 9r] | – | 100 µM | –
COc1cccc(CC2(C(=O)N[C@@H](CC(C)C)C(=O)NC(CC(F)F)C(=O)C(=O)O)Cc3ccccc3N2)c1 (mixture of isomers) [Compound 9s] | – | 38 µM | –
CC(C)CC(NC(=O)C1(Cc2cccc(C#N)c2)Cc2ccccc2N1)C(=O)NC(CC(F)F)C(=O)C(=O)O (mixture of isomers) [Compound 9t] | – | 9 µM | –
CC(C)C[C@H](NC(=O)C1(Cc2cccc(Oc3ccccc3)c2)Cc2ccccc2N1)C(=O)NC(CC(F)F)C(=O)C(=O)O (mixture of isomers) [Compound 9v] | – | 24 µM | –
CC(C)C[C@H](NC(=O)C1(Cc2ccc(Cl)s2)Cc2ccccc2N1)C(=O)NC(CC(F)F)C(=O)C(=O)O (mixture of isomers) [Compound 9w] | – | 3 µM | –
CC(C)C[C@H](NC(=O)C1(CC(C)C)Cc2ccc(Oc3ccccc3)cc2N1)C(=O)NC(CC(F)F)C(=O)C(=O)O (mixture of isomers) [Compound 10c] | – | 100 µM | –
CC(C)C[C@H](NC(=O)C1Cc2ccc(OCC3CC3)cc2N1)C(=O)NC(CC(F)F)C(=O)C(=O)O (mixture of isomers) [Compound 10d] | – | 66 µM | –
CC(C)C[C@H](NC(=O)C1Cc2ccc(OC3CCOC3)cc2N1)C(=O)NC(CC(F)F)C(=O)C(=O)O (mixture of isomers) [Compound 10g] | – | 23 µM | –
CC(C)C[C@H](NC(=O)C1Cc2ccc(OCC3CCOC3)cc2N1)C(=O)NC(CC(F)F)C(=O)C(=O)O (mixture of isomers) [Compound 10h] | – | 16 µM | –
CC(C)C[C@H](NC(=O)C1(CC(C)C)CCC(=O)N1)C(=O)NC(CC(F)F)C(=O)C(=O)O (mixture of isomers) [Compound 11] | – | 43 µM | –
CC(=O)N[C@@H](CC(=O)O)C(=O)N[C@@H](CCC(=O)O)C(=O)N[C@H](C(=O)N[C@@H](CCC(=O)O)C(=O)N[C@@H](CC1CCCCC1)C(=O)NC(CC(F)F)C(=O)O)C(c1ccccc1)c1ccccc1 (single isomer, unassigned) [Compound 1b (D)] | – | – | IC50 (Table 1 hexapeptides, cells printed in μM, read-out: IC50): 1 µM
CC(=O)N[C@@H](CC(=O)O)C(=O)N[C@@H](CCC(=O)O)C(=O)N[C@H](C(=O)N[C@@H](CCC(=O)O)C(=O)N[C@@H](CC1CCCCC1)C(=O)NC(CC(F)F)C(=O)O)C(c1ccccc1)c1ccccc1 (single isomer, unassigned) [Compound 1b (L)] | – | – | IC50 [3]: 0.02 µM
CC(=O)N[C@@H](CC(=O)O)C(=O)N[C@@H](CCC(=O)O)C(=O)N[C@H](C(=O)N[C@@H](CCC(=O)O)C(=O)N[C@@H](CC1CCCCC1)C(=O)NC(C=O)CC(F)F)C(c1ccccc1)c1ccccc1 (single isomer, unassigned) [Compound 1c (D)] | – | – | IC50 [3]: 0.043 µM
